Measured values taken from US20170143006A1, “Composition and Use Thereof” (DUPONT NUTRITION BIOSCIENCES APS, priority 2014, published 2017).
Where a name gives a salt, the structure may show the parent alone. Marks after values point to notes of the source that are not given here.

How the values were obtained:
ruminal fluid [1] = assay: In vitro fermentation in buffered goat ruminal fluid, 24 h: gas production (methane content CH4); assay type: cell-based, Murciano-Granadina goats; settings: for Gas production / mL CH4: after 24 hrs of incubation; for CH4/S / mL CH4/S / mL gas/S: per S (substrate in g DM), 24 hrs
Experimental: The gas content can be analysed in a Focus Gas Chromatograph (Thermo, Milan, Italy) equipped with a split/splitless injector and a flame ionization detector. The separation can be performed in a GS-Q capillary column (J&W Scientific, USA) (30 m×0.32 mm i.d.). The carrier gas may be Helium at a constant flow of 1 ml/min. The samples may be injected with a split ratio of 1/100. The initial oven temperature can be set at 50° C. held for 1 min and increased to 150 at 50° C./min and finally maintained at that temperature for 2 min. Both detector and injector temperatures can be set at 200° C. An external standard (41.21% CO2 and 58.79% CH4) may be employed for quantification of methane content in samples.
(§1) Twelve mature Murciano-Granadina goats of similar body weight (46.97±2.5 kg BW) during late lactation were randomly split into 4 groups. Each group was fed with the same total mixed ration for 10 days. Each group included 4 g/kg of one of four types of betaine additive: • 1—Non Coated Betaine BS1 (Betafin S1, natural betaine, DuPont) • 2—Coated Betaine B52 (see preparative example 3) • 3—Coated Betaine B60 (see preparative example 4) • 4—Uncoated Betaine HCl
(§2) After an adaptation period to the diets including betaine of 10 days, ruminal fluid was obtained by means of an oesophagus probe from all goats. Ruminal fluid from goats (3 per treatment) was obtained just before feeding, transported to the laboratory and immediately strained/filtered across/through four layers of cheesecloth and mixed into an Erlenmeyer flask.
(§3) The in vitro fermentation was carried out by the following incubation process; the squeezed rumen fluid (after filtration) was mixed with Goering and Van Soest (1970) buffer solution in a 1:4 (v/v) ratio at 39° C. under continuous flow of CO2.
(§4) Samples of 1 g of total ration (0.4 g concentrate and 0.6 g alfalfa hay) plus betaine (0.015 g of each type) were accurately weighed and mixed into 125 mL bottles (ANKOM RF equipment). 50 mL of the buffered rumen fluid was added to each bottle under CO2 flow.
(§5) Bottles were sealed and incubated at 39° C. for 24 h. Gas measurements were recorded every hour, while pH was measured at the start and right after 24 h; crude fiber, digestibility, CH4 and volatile fatty acid (VFA) concentrations were determined after 24 h of incubation.

ruminal fluid [2] = assay: In vitro fermentation in buffered goat ruminal fluid, 24 h: determination of volatile fatty acids (VFA); assay type: cell-based, Murciano-Granadina goats; settings: after 24 h of incubation
Experimental: Determination of VFA can be based on the method previously described by Jouany, J. P., Volatile fatty acid and alcohol determination in digestive contents, silage juices, bacterial cultures and anaerobic fermentor contents; Sciences des Aliments, 2: 131-144, 1982.
For instance, samples are filtered through 0.45 μm cellulose syringe filters. One hundred microliters of an internal standard solution (0.4 g of 4-metil-valeric acid diluted in 100 ml of deionised water) and 0.1 ml of a preservative (a mix of 5% H3PO4 and 1% CIHg in deionised water) are added to 0.8 ml of filtrate. One μL from each sample is injected in a gas chromatograph (Fisons 8000 series, Milan, Italy) equipped with a split/splitless injector and FID detector. The separation of SOFA (short chain fatty acids) is made in a DB-FFAP capillary column (30 m×0.25 mm×0.25 μm of film thickness) J&W Scientific (USA). The carrier gas is N2 at a constant pressure of 120 KPa. Both detector and injector temperatures are set at 245° C. The initial oven temperature is set at 115° C. held for 5 min and increased to 230 at 8.5° C./min and finally maintained at that temperature for 10 min. SOFA are identified by comparing their retention times with a standard (46975-U de Supelco®, PA, USA).
as §1, §2, §3, §4, §5

ruminal fluid [3] = assay: In vitro fermentation in buffered goat ruminal fluid, 24 h: ruminal parameters (DM, pH, residue, digestibility, N-NH3); assay type: cell-based, Murciano-Granadina goats; settings: 24 h incubation
Text: as §1, §2
The in vitro fermentation was carried out by the following incubation process; the squeezed rumen fluid (after filtration) was mixed with Goering and Van Soest (1970) buffer solution in a 1:4 (v/v) ratio at 39° C. under continuous flow of CO2. […]
Bottles were sealed and incubated at 39° C. for 24 h. Gas measurements were recorded every hour, while pH was measured at the start and right after 24 h; crude fiber, digestibility, CH4 and volatile fatty acid (VFA) concentrations were determined after 24 h of incubation. […]

[4] = pure form, white crystalline compound; cited from earlier work

SMILES | Gas production (ruminal fluid [1]) [mL] | mL CH4 (ruminal fluid [1]) | CH4/S (ruminal fluid [1]) [J] | mL CH4/S (ruminal fluid [1]) | mL gas/S (ruminal fluid [1]) [mL] | Acetic acid (ruminal fluid [2]) | Butyric acid (ruminal fluid [2]) | Isobutyric acid (ruminal fluid [2]) | Isovaleric acid (ruminal fluid [2]) | N-Caproic acid (ruminal fluid [2]) | N-Valeric acid (ruminal fluid [2]) | Propionic acid (ruminal fluid [2]) | Total VFA (ruminal fluid [2]) [mmol/L] | N—NH3, mg/L (ammonia nitrogen) (ruminal fluid [3]) [mg/L] | solubility in water and lower alcohols [4]
C[N+](C)(C)CC(=O)[O-] [BS1, betaine] | 203.41 | 12.17^a mL | 498.54 | 12.65^a mL | 210.33 | 63.92 | 15.26^a | 0.51 | 0.66 | 0.18 | 1.55 | 17.92^b | 43.46 | 45.04 | 
C[N+](C)(C)CC(=O)[O-] [betaine, trimethylglycine] |  |  |  |  |  |  |  |  |  |  |  |  |  |  | readily soluble
C[N+](C)(C)CC(=O)O [BHCl, Betaine HCl, reference compound] | 210.67 | 10.68^a mL | 437.48 | 11.10^a mL | 218.70 | 63.90 | 14.63^a | 0.61 | 0.95 | 0.19 | 1.64 | 18.07^b | 47.13 | 51.13 | 
